According to article PMC5514153, “Targeting PTPRZ inhibits stem cell-like properties and tumorigenicity in glioblastoma cells” (Scientific Reports, 2017):

What was measured:
[1] = system: PTPRZ and PTPRG V-to-F substitution mutants; experiment: Sensitivity of V-to-F mutants to competitive inhibitors; format: biochemical, human; conditions: SCB4380 10 µM, vanadate 200 µM; on average
Protocol: For determination of IC50 values, Lineweaver-Burk plot, and inhibitor sensitivity assays, recombinant PTP proteins were preincubated with a dilution series of the compound in assay buffer (100 mM acetate, 50 mM Tris, and 50 mM Bis-Tris, pH 6.5 containing 100 μg/ml BSA, 5 mM DTT, and 0.01% Brij-35) for 1 h, and the enzyme-inhibitor mixture was added to an equal volume of 40 μM DiFMUP (6,8-difluoro-4-methylumbiliferyl phosphate, #D6567, Thermo Fisher Scientific) solution to initiate the reaction. The hydrolysis of DiFMUP was continuously monitored as an increase in fluorescence at 455 nm (excitation at 358 nm) for ~100 s using a spectrofluorometer (FI-4500, Hitachi) at room temperature. The slope of the fluorescence signal was defined as catalytic activity. IC50 values were calculated by the conventional linear interpolation method. We examined preincubation effect, reversibility, and time dependence of PTP inhibition by NAZ2329 as described in the figure legends.
Le ge nds to Supple me ntary Figure s
Supplementary Figure S1. Aberrant expressions of core transcription factors in Ptprz-knockdown glioblastoma cells. (A) Western using antibodies against SOX2, OLIG2, POU3F2, and SALL2. […] SALL2 proteins were not detected in C6 or U251 cells. […]
positions corresponding to Val-1911 of PTPRZ1 are colored in blue and red, respectively. […] Data were analyzed as […]

[2] = not told; cited from earlier work
[3] = target: T1, human PTPRZ1 (whole intracellular region, D1+D2) (Homo sapiens, UniProt P23471); experiment: In vitro PTPase assay (DiFMUP), PTPRZ1 whole intracellular region; format: biochemical
T1 construct: Recombinant proteins corresponding to the entire intracellular regions (ICRs) of PTPRZ1, PTPRA, and PTPRM; made in house; host or cells: baculovirus-silkworm expression system
T1 sequence (P23471 1663-2315 limits assumed): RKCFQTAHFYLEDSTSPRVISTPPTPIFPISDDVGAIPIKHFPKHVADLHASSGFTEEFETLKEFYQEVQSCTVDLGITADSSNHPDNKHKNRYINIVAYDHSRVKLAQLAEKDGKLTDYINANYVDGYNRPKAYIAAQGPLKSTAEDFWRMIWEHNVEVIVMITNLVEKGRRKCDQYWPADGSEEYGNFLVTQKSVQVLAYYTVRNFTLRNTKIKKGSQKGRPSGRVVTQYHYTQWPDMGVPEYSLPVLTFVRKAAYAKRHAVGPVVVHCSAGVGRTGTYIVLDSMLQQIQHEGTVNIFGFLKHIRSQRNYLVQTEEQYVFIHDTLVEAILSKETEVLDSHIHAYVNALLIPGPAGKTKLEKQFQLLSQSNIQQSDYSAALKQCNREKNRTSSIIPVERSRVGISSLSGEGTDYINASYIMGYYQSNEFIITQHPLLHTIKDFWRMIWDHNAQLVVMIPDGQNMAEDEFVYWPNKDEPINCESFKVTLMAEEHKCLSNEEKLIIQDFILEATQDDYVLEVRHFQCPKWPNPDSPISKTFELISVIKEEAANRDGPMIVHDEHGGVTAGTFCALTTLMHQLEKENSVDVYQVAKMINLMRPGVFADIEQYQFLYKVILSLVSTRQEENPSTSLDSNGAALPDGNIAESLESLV
Protocol: Figure 4 NAZ2329, an allosteric inhibitor of R5 RPTP subfamily members. (A) Structure of NAZ2329. (B) Effect of preincubation of NAZ2329 on its inhibitory activity against PTPRZ. Recombinant human PTPRZ1 enzyme (the whole intracellular region) was premixed with NAZ2329 for the indicated times and followed by addition of a fluorogenic DiFMUP (non-specific PTP substrate, 6,8-difluoro-4-methylumbiliferyl phosphate) to measure PTP inhibitory activity. (C) Time dependence. The PTPRZ1 enzyme was added to the inhibitor–substrate mixture, and the inhibitory activity was determined at each time point relative to the vehicle control. (D) Reversibility of inhibition. PTPRZ1 enzymes were preincubated with NAZ2329 at the indicated concentrations for 30 min. The mixture was then 20-fold diluted, and recovered PTP activity was expressed as the relative activity compared with the vehicle-treated enzyme. (E) Lineweaver-Burk plot analysis. PTPRZ1 enzymes were preincubated with NAZ2329 for 60 min, and the PTP activity was measured using DiFMUP. (F) Concentration-inhibition curves of NAZ2329 for representative PTP members, including human PTPRZ and PTPRG (another R5 RPTP subfamily member), human PTPRS (R2A subfamily), human PTPRM (R2B subfamily), mouse PTPRB (R3 subfamily), human PTPRA (R4 subfamily), human PTPN1 (non-transmembrane PTP, NT1 subfamily), and human PTPN6 (NT2 subfamily), were generated. Assays were performed using DiFMUP. IC50 values obtained are shown in the inset. Data represent the averages of two or three separate experiments. TEXT PRINTED IN THE PICTURE: (F) NAZ2329: IC50 (μM): hPTPRZ1 7.5; IC50 (μM): hPTPRG 4.8; IC50 (μM): hPTPRA 35.7; IC50 (μM): hPTPRM 56.7; IC50 (μM): hPTPRS 23.7; IC50 (μM): mPTPRB 35.4; IC50 (μM): hPTPN6 15.2; IC50 (μM): hPTPN1 14.5
Recombinant proteins corresponding to the entire intracellular regions (ICRs) of PTPRZ1, PTPRA, and PTPRM were expressed using a baculovirus-silkworm expression system, and purified as described. The ICRs of PTPRG, PTPRS, and PTPRB and the catalytic domains of PTPN1 and PTPN6 were expressed as glutathione-S-transferase (GST) fusion proteins from each pGEX plasmid in Escherichia coli strain BL21 (ref. [6]). GST fusion proteins were purified by glutathione affinity chromatography as described. Chondroitinase ABC (chABC) was purchased from Sigma-Aldrich (catalog #C3667). Anti-PTPRZ-S, rabbit polyclonal antibodies against the extracellular region of PTPRZ was described previously (ref. [44]). The following are the specificities and sources of the commercially available antibodies used in the present study: Anti-RPTPβ (a monoclonal antibody against the intracellular domain of PTPRZ1 receptors, #610179, BD Biosciences), anti-SOX2 (#ab97959, Abcam), anti-POU3F2 (#12137, Cell Signaling), anti-OLIG2 (#AB9610, Millipore), anti-SALL2 (#12679–1-AP, Proteintech Group), anti-GAPDH (#ab9482, Abcam) anti-phosphotyrosine (PY20; #ab16389, Abcam), and anti-pY118-paxillin (#2541, Cell Signaling), mouse anti-paxillin antibody (#610569, BD Bioscience), anti-MBP (#sc-13914, Santa Cruz Biotechnology), and anti-NG2 proteoglycan (#AB5320, Millipore). […]

hPTPRZ1 (D1) = target: T2, hPTPRZ1 (D1) (Homo sapiens, UniProt P23471); experiment: In vitro PTPase assay (DiFMUP), PTPRZ1 D1 domain; format: biochemical; conditions: first PTP domain fragment
T2 construct: human PTPRZ1-D1 (amino acid residues, 1,698-2,000)
T2 sequence (P23471 1698-2000 limits assumed): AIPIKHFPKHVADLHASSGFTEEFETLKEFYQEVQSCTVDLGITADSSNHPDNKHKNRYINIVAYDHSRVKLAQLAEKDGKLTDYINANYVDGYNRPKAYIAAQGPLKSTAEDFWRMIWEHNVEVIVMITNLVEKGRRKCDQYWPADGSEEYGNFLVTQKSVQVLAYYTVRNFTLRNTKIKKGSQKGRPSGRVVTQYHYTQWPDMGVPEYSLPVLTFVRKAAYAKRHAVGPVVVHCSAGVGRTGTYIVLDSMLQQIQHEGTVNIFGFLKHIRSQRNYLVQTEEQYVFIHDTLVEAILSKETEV

C6 xenograft = experiment: C6 subcutaneous xenograft nude mouse model; format: in vivo; conditions: nude mice, i.p. twice per week; NAZ2329 45 µmol (22.5 mg)/kg, TMZ 50 mg/kg; vehicle 17 days
Protocol: Figure 10 Antitumor effects of NAZ2329 on the C6 mouse xenograft model. (A) Nude mice were subcutaneously implanted with C6 cells (5 × 10^6 cells), and tumor size was monitored until the criteria were met (>150 mm^3). At this time, mice were randomly divided into 4 treatment groups. DMSO as the vehicle control (n = 7), NAZ2329 (45 µmol (22.5 mg)/kg body weight, n = 9), temozolomide (TMZ, 50 mg/kg, n = 9), and the combination of NAZ2329 (45 µmol/kg) with TMZ (50 mg/kg) (n = 9) were administered intraperitoneally twice per week until the humane endpoint (>3,000 mm^3 tumor size or 40 days after the treatment). Tumor growth in each animal and the number of days required to reach a tumor volume of 3,000 mm^3 are shown in the graph. Five mice were sacrificed due to tumor necrosis (shown by gray symbols in the graph), and two mice unexpectedly died suddenly during the observation period (black symbols in the graph).
Parental or Ptprz-knockdown C6 cells (5 × 10^6 cells) suspended in a volume of 100 µl were subcutaneously injected into the left hind limbs of BALB/c-nu/nu mice (females, 4 weeks old mice were purchased from Japanese Charles River Co. Ltd.). Tumor growth was measured with calipers and calculated by the formula: volume = length × width × width × 0.5, as previously described. The drug treatment initiated when the tumor size reached 150 mm^3. […]

Row | Compound | change in sensitivity on V-to-F substitution in PTPRZ and PTPRG [1] | cell permeability [2] | inhibitory effects on PTPRZ activity ([3]; Supplementary Fig. S2) | IC50 hPTPRZ1 (D1+D2) ([3]; whole intracellular region, DiFMUP, 60-min preincubation) | IC50 hPTPRZ1 (D1) (hPTPRZ1 (D1)) | median day for the tumor size to reach 3,000 mm^3 (C6 xenograft)
1 | O=S(=O)([O-])c1ccc2c(N=Nc3ccc(S(=O)(=O)[O-])c4ccccc34)c(O)c(S(=O)(=O)[O-])cc2c1.[Na+].[Na+].[Na+] [SCB4380] | ~ 5% | cell impermeable |  |  |  | 
2 | Cn1nnc2c(C(N)=O)ncn2c1=O [temozolomide, reference compound] |  |  | no significant inhibitory effects | ns | ns | 25 days
3 | [O]=[V]([O-])([O-])[O-] [vanadate] | ~ 5% |  |  |  |  | 
